Reference: patent publication US20100249234A1, “METHODS OF REDUCING VIRULENCE IN BACTERIA” (UWM RESEARCH FOUNDATION, INC., priority 2007, published 2010)

Legend:
Type in all cases: cell-based, Dickeya dadantii 3937 (Ech3937)
rsmB mRNA = test: qRT-PCR relative mRNA level of rsmB; conditions: Ech3937 in supplemented MM vs MM alone (normalized to 1)
Procedure: (§1) Bacterial strains were grown in MM. Total RNA from the bacterial cells was isolated by using the TRI reagent method (Sigma, Mo.) and treated with Turbo DNA-free DNase kits (Ambion, TX) as described (Peng et al., 2006). An iScript cDNA Synthesis Kit (Bio-Rad, CA) was used to synthesize cDNA from 0.5 μg of treated total RNA. The Real Master Mix (Eppendorf, Westbury, N.Y.) was used for qRT-PCR reaction to quantify the cDNA level of target genes in different samples. The rplU was used as the endogenous control for data analysis. qRT-PCR data were analyzed using Relative Expression Software Tool as described (Pfaffl, M. W., Horgan, G. W., and Dempfle, L. (2002) Relative expression software tool (REST) for group-wise comparison and statistical analysis of relative expression results in real-time PCR. Nucleic Acids Res 30:e36.).

hrpA mRNA = test: qRT-PCR relative mRNA level of hrpA; conditions: MM supplemented with 0.1 mM OCA (FIG. 4)
Procedure: as §1

hrpL mRNA = test: qRT-PCR relative mRNA level of hrpL; conditions: 0.1 mM OCA, 12 h of growth, P<0.01
Procedure: as §1

hrpA promoter = hrpA promoter activity, GFP reporter plasmid phrpA, flow cytometry (FACS); conditions: for GFP intensity (Mean Fluorescence Intensity) of Ech-Rif (phrpA) / GFP intensity (Mean Fluorescence Intensity) of Ech137 (phrpA): MM + 0.1 mM OCA; for GFP intensity (Mean Fluorescence Intensity) of Ech137 (phrpA): gacA mutant Ech137
Procedure: (§2) FACS analysis of promoter activity of dspE, hrpA, hrpL, hrpN, and hrpS was carried out as described (Peng et al., 2006). Briefly, the wild-type Ech3937 and the mutant strains carrying the promoter reporter plasmid were grown on LB broth at 28° C. overnight and transferred to appropriate media. For FACS analysis, samples were collected by centrifugation, washed with 1× phosphate buffer saline (PBS) at 13,000 rpm for 1 min, and re-suspended in 1×PBS to ca 10^6 CFU/ml prior to being run in a FACS Calibur flow cytometer (BD Biosciences, CA). Three replicates were performed for each treatment.
To identify potential compounds that repress activation of T3SS, analogs and isomers of TCA and intermediates of salicylic acid and phenypropanoid biosynthesis pathways in plants were further screened for their effect on Ech3937 hrpA expression by flow cytometry (Table 9). A green fluorescent protein (GFP) reporter plasmid phrpA (pProbe-AT derivative with PCR fragment containing hrpA promoter region) was constructed, resulting in a transcriptional fusion of hrpA promoter with GFP gene. Bacterial cells containing phrpA plasmid were grown in MM supplemented with 0.1 mM of each compound. GFP intensity, which is a measurement of hrpA promoter activity, was measured by flow cytometry.

hrpL promoter = hrpL promoter activity, GFP reporter plasmid phrpL, flow cytometry (FACS); conditions: MM + 0.1 mM compound
Procedure: as §2
Since OCA and TCA induced the expression of hrpN, the effect of these two phenolic compounds on the expression of hrpA, hrpL, and hrpS was investigated further. […] GFP intensity was determined on gated populations of bacterial cells by flow cytometry and analyzed with the Cell Quest software (BD Biosciences, San Jose, Calif.). The lines labeled “1” stand for the GFP expression control base level of the Ech3937 containing pPROBE-AT vector; lines labeled “2” stand for the promoter activity of hrpS, hrpL, hrpA and hrpN in Ech3937 in MM; lines labeled “3” stand for the promoter activity of Ech3937 in MM supplemented with 0.1 mM OCA; lines labeled “4” stand for the promoter activity of hrpL mutant WPP96 in MM; lines labeled “5” stand for the promoter activity of hrpL mutant WPP96 in MM supplemented with 0.1 mM OCA. Values are representative of at least two experiments. […] Compared with MM alone, the average GFP fluorescence intensity of bacterial cells of Ech3937 (phrpA) was doubled when 0.1 mM of OCA and TCA were added to the medium (Table 4; FIG. 3). […] The mrp, whose protein product has an ATPase conserved domain (2e-06), was used as a reference gene in this study.

hrpN promoter = hrpN promoter activity, GFP reporter plasmid phrpN, flow cytometry (FACS); conditions: for GFP intensity (Mean Fluorescence Intensity) of Ech138 (phrpN): iaaM mutant Ech138, MM + 0.1 mM OCA
hrpS mRNA = test: qRT-PCR relative mRNA level of hrpS; conditions: MM supplemented with OCA, p>0.5 (FIG. 4)
Procedure: as §1

dspE mRNA = test: qRT-PCR relative mRNA level of dspE; conditions: MM supplemented with 0.1 mM OCA (FIG. 4)
Procedure: as §1

[1] = MM + 0.1 mM compound, 12 h (Table 4)
[2] = hrpL mutant WPP96, MM + 0.1 mM compound, 12 h (Table 4)

## O=C(O)/C=C/c1ccccc1O [OCA, o-coumaric acid]
rsmB mRNA
  rsmB mRNA relative expression ratio: 1.4
hrpA mRNA
  hrpA mRNA compared with MM alone (qRT-PCR): significantly higher amount
hrpL mRNA
  hrpL mRNA compared with MM alone (qRT-PCR): about 3 fold
hrpA promoter; 0.1 mM compound, 12 h
  average GFP fluorescence intensity of Ech3937 (phrpA) compared with MM alone: doubled
hrpA promoter; 6 h
  GFP intensity (Mean Fluorescence Intensity) of Ech-Rif (phrpA): 18 ± 0
  GFP intensity (Mean Fluorescence Intensity) of Ech137 (phrpA): 4.9 ± 0.1
hrpA promoter; 12 h
  GFP intensity (Mean Fluorescence Intensity) of Ech-Rif (phrpA): 51 ± 2
  GFP intensity (Mean Fluorescence Intensity) of Ech137 (phrpA): 5.9 ± 0.1
hrpA promoter; 24 h
  GFP intensity (Mean Fluorescence Intensity) of Ech-Rif (phrpA): 49 ± 1
  GFP intensity (Mean Fluorescence Intensity) of Ech137 (phrpA): 8.3 ± 0
hrpA promoter; MM + 0.1 mM compound, 6 h (Table 9)
  expression of hrpA, GFP intensity (Mean Fluorescence Intensity), Ech3937 carrying phrpA: 15.5 ± 1.1
hrpA promoter; [1]
  GFP intensity (Mean Fluorescence Intensity) of Ech3937 (phrpA): 82 ± 1
hrpA promoter; MM + 0.1 mM compound, 12 h (Table 9)
  expression of hrpA, GFP intensity (Mean Fluorescence Intensity), Ech3937 carrying phrpA: 115.5 ± 7.9
hrpA promoter; MM + 0.1 mM compound, 24 h (Table 9)
  expression of hrpA, GFP intensity (Mean Fluorescence Intensity), Ech3937 carrying phrpA: 225.8 ± 15.6
hrpA promoter; [2]
  GFP intensity (Mean Fluorescence Intensity) of WPP96 (phrpA): 6.5 ± 0.2
hrpL promoter; Ech3937, 12 h
  promoter activity of hrpL compared with MM alone: slightly higher promoter activity
hrpL promoter; 12 h (Table 4)
  GFP intensity (Mean Fluorescence Intensity) of Ech3937 (phrpL): 19 ± 0
hrpL promoter; hrpL mutant WPP96, 12 h (Table 4)
  GFP intensity (Mean Fluorescence Intensity) of WPP96 (phrpL): 313 ± 29
hrpN promoter; 0.05 mM compound added to MM, 12 h and 24 h (FIGS. 2A, 2B)
  increase of average GFP fluorescence intensity of Ech3937 (phrpN) compared with MM alone: approximately 4 fold
hrpN promoter; 0.1 mM compound in MM, 12 h (FIG. 5)
  induction of hrpN expression in Ech3937 and in hrpX (WPP67), hrpY (WPP92), hrpS (WPP90) mutants: induced the expression of hrpN in Ech3937, but not in hrpX, hrpY, and hrpS mutants
hrpN promoter; MM + 0.1 mM OCA (MMOCA), 6 h (Table 5)
  GFP intensity (Mean Fluorescence Intensity) of Ech3937 (phrpN): 31 ± 3
hrpN promoter; MM + 0.1 mM OCA (MMOCA), 12 h (Table 5)
  GFP intensity (Mean Fluorescence Intensity) of Ech3937 (phrpN): 91 ± 8
hrpN promoter; MM + 0.1 mM OCA (MMOCA), 24 h (Table 5)
  GFP intensity (Mean Fluorescence Intensity) of Ech3937 (phrpN): 78 ± 8
hrpN promoter; [1]
  GFP intensity (Mean Fluorescence Intensity) of Ech3937 (phrpN): 94 ± 3
hrpN promoter; [2]
  GFP intensity (Mean Fluorescence Intensity) of WPP96 (phrpN): 3.3 ± 0.1
hrpN promoter; 6 h
  GFP intensity (Mean Fluorescence Intensity) of Ech138 (phrpN): 9.1 ± 1.6
hrpN promoter; 12 h
  GFP intensity (Mean Fluorescence Intensity) of Ech138 (phrpN): 33 ± 5
hrpN promoter; 24 h
  GFP intensity (Mean Fluorescence Intensity) of Ech138 (phrpN): 39 ± 5
hrpS mRNA
  hrpS gene expression, MM vs supplemented MM (qRT-PCR): No significant difference
dspE mRNA
  dspE mRNA compared with MM alone (qRT-PCR): significantly higher amount
